Results reported in ChEMBL document CHEMBL3102695, “New melatonin (MT1/MT2) ligands: design and synthesis of (8,9-dihydro-7H-furo[3,2-f]chromen-1-yl) derivatives” (Bioorg Med Chem, 2014).
Active and inactive are the calls of the source. The calls are words filed in the database; no cut-off is given here.

What was measured:
[1] = Intrinsic activity at human melatonin MT1 receptor expressed in CHO cells assessed as [35S]GTPgammaS binding after 1 hr; type: functional, cell-based
[2] = Intrinsic activity at human melatonin MT1 receptor expressed in CHO cells assessed as [35S]GTPgammaS binding after 1 hr relative to melatonin; type: functional
[3] = Intrinsic activity at human melatonin MT2 receptor expressed in CHO cells assessed as [35S]GTPgammaS binding after 1 hr relative to melatonin; type: functional
[4] = Displacement of 2-[I]iodomelatonin from human melatonin MT2 receptor after 120 mins
[5] = Displacement of 2-[I]iodomelatonin from human melatonin MT1 receptor after 120 mins
[6] = Intrinsic activity at human melatonin MT2 receptor expressed in CHO cells assessed as [35S]GTPgammaS binding after 1 hr; type: functional, cell-based
Mus musculus [7] = experiment: Anxiolytic activity in C3H/he mouse assessed as increase in number of transitions at 10 to 40 mg/kg, po by light/dark box test; type: functional, organism-based
Mus musculus [8] = experiment: Increase of neophobia in C3H/he mouse assessed as time spent in unfamiliar compartment at 1 to 25 mg/kg, po; type: functional, organism-based
Mus musculus [9] = experiment: Increase of resynchronization of activity rhythm in C3H/he mouse at 20 mg/kg, ip; type: functional; settings: route intraperitoneal
Rattus norvegicus = experiment: Decrease of anticipation of social defeat in rat assessed as reduction of duration of immobility and vocalization at 40 mg/kg, ip; type: functional, organism-based; parameters: dose 40 mg/kg
Mus musculus [10] = experiment: Anxiolytic activity in C3H/he mouse assessed as increase in time spent in light box at 10 to 40 mg/kg, po by light/dark box test; type: functional, organism-based
Mus musculus [11] = experiment: Increase of neophobia in C3H/he mouse assessed as time spent in unfamiliar compartment at 1 to 10 mg/kg, po; type: functional, organism-based
Mus musculus [12] = experiment: Anxiolytic activity in C3H/he mouse assessed as increase in number of transitions at 20 to 40 mg/kg, po by light/dark box test; type: functional, organism-based
Mus musculus [13] = experiment: Anxiolytic activity in C3H/he mouse assessed as increase in time spent in light box at 20 to 40 mg/kg, po by light/dark box test; type: functional, organism-based

Structure (SMILES) | EC50 [1] [nM] | Ki [4] [nM] | Ki [5] [nM] | EC50 [6] [nM] | Emax [2] [%] | Emax [3] [%] | further results
CC(=O)NCCc1coc2cc(C(=O)c3cccc(C(F)(F)F)c3)c3c(c12)CCCO3 | – | 29 | 34 | – | – | – | –
CC(=O)NCCc1c(-c2ccccc2)oc2ccc3c(c12)CCCO3 | 0.12 | 0.14 | 0.04 | 0.07 | 107 | 104 | –
COc1cccc(-c2oc3ccc4c(c3c2CCNC(C)=O)CCCO4)c1 | 1.8 | 0.3 | 0.33 | 0.2 | 30 | 68 | –
C=CCC(=O)NCCc1coc2ccc3c(c12)CCCO3 | 2.5 | 0.08 | 0.07 | 1.5 | 68 | 57 | –
C=CC(=O)NCCc1coc2ccc3c(c12)CCCO3 | 13 | 0.38 | 0.11 | 51 | 80 | 74 | –
COc1cccc(C(=O)c2oc3ccc4c(c3c2CCNC(C)=O)CCCO4)c1 | – | 0.83 | 130 | – | – | – | –
CC(=O)NCCc1coc2ccc3c(c12)CCCO3 | 0.8 | 0.59 | 0.31 | 0.19 | 98 | 68 | Activity (Mus musculus [7]): Active; Activity (Mus musculus [8]): Active; Activity (Mus musculus [9]): 30%; Activity (Rattus norvegicus): Active; Activity (Mus musculus [10]): Active
C=CCc1oc2ccc3c(c2c1CCNC(C)=O)CCCO3 | 0.15 | 0.12 | 0.03 | 0.08 | 104 | 109 | –
C=Cc1oc2ccc3c(c2c1CCNC(C)=O)CCCO3 | 0.08 | 0.2 | 0.05 | 0.21 | 113 | 120 | –
CCCC(=O)c1oc2ccc3c(c2c1CCNC(C)=O)CCCO3 | – | 0.1 | 0.97 | – | – | – | –
COc1ccccc1C(=O)c1oc2ccc3c(c2c1CCNC(C)=O)CCCO3 | – | 13 | 53 | – | – | – | –
CC(=O)NCCc1c(-c2cccc(O)c2)oc2ccc3c(c12)CCCO3 | 4.6 | 0.21 | 0.87 | 0.21 | 46 | 93 | –
O=C(CI)NCCc1coc2ccc3c(c12)CCCO3 | 0.2 | 0.08 | 0.07 | 0.1 | 121 | 78 | –
CCCNC(=S)NCCc1coc2ccc3c(c12)CCCO3 | – | 4.4 | 5.4 | – | – | – | –
COc1ccc2occ(CCNC(C)=O)c2c1 | 5.5 | – | 0.16 | 0.7 | 118 | 101 | –

More lines, in order of falling Ki [5], values ahead:

EC50 [1] [nM] | Ki [4] [nM] | Ki [5] [nM] | EC50 [6] [nM] | Structure (SMILES) | Emax [2] [%] | Emax [3] [%] | further results
– | 3860 | 5370 | – | COc1ccc(C(=O)c2cc3occ(CCNC(C)=O)c3c3c2OCCC3)cc1 | – | – | –
– | – | 823 | – | COc1ccccc1C(=O)c1cc2occ(CCNC(C)=O)c2c2c1OCCC2 | – | – | –
> 10000 | 2.6 | 326 | 16 | CC(=O)NCCc1c(C(=O)c2cccc(C(F)(F)F)c2)oc2ccc3c(c12)CCCO3 | – | 44 | –
– | 2.7 | 105 | – | COc1ccc(C(=O)c2oc3ccc4c(c3c2CCNC(C)=O)CCCO4)cc1 | – | – | –
– | 23 | 50 | – | CCCCNC(=O)NCCc1coc2ccc3c(c12)CCCO3 | – | – | –
– | 40 | 44 | – | CC(=O)NCCc1coc2cc(C(=O)c3ccccc3)c3c(c12)CCCO3 | – | – | –
455 | 80 | 35 | 149 | COc1cccc(C(=O)c2cc3occ(CCNC(C)=O)c3c3c2OCCC3)c1 | 56 | 58 | –
– | 46 | 23 | – | CCCCNC(=S)NCCc1coc2ccc3c(c12)CCCO3 | – | – | –
> 10000 | 13 | 14 | > 10000 | CC(=O)N(C)CCc1coc2ccc3c(c12)CCCO3 | – | – | –
– | 13 | 9 | – | CC(=O)NCCc1coc2cc(Cc3cccc(C(F)(F)F)c3)c3c(c12)CCCO3 | – | – | –
143 | 7.4 | 5.6 | 38 | S=C(NCCc1coc2ccc3c(c12)CCCO3)NC1CC1 | 42 | 46 | –
8.5 | 0.67 | 2.2 | 0.3 | CC(=O)NCCc1c(-c2cccc(CO)c2)oc2ccc3c(c12)CCCO3 | 32 | 67 | –
61 | 2.6 | 1.3 | 14 | C/C=C/C(=O)NCCc1coc2ccc3c(c12)CCCO3 | 92 | 65 | –
– | 0.74 | 1.3 | – | CCCNC(=O)NCCc1coc2ccc3c(c12)CCCO3 | – | – | –
1.7 | – | 0.23 | 0.4 | COc1ccc2[nH]cc(CCNC(C)=O)c2c1 [MELATONIN] | – | – | Activity (Mus musculus [11]): Active; Activity (Mus musculus [12]): Active; Activity (Mus musculus [13]): Active
